Laboratory results published in patent US3988364A, “Novel N,N-di-substituted amidines and several acid-addition salts thereof” (Toyo Jozo Kabushiki Kaisha, priority 1972, dated 1976).
Counter-ions that a name gives are not always drawn.

system: not listed separately; assay: in vivo; assay type: in vivo; details: mouse, in vivo, sc, male ddy mice, subcutaneous injection, Litchfield-Wilcoxon
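For LD50 in this document: animals allocated into more than five groups, with five mice per group.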
Excerpt: (§1) test animals: more than five groups, each group
consisting of five male mice of ddy-

Question: With `COc1cccc(N=C(NC2CCCCC2)c2cccc(C)c2)c1.O=C(O)C(=O)O` [Compound 28, N-cyclohexyl, N'-m-methoxyphenyl-m-toluamidine oxalate] as the compound, how does the LD50 at 72 h read?
Answer: Its LD50 at 72 h is 743 mg/kg.

Question: For `Cc1ccc(C(=Nc2ccccc2C)NC2CCCCC2)cc1.Cl` [Compound 29, N-cyclohexyl, N'-o-tolyl-p-toluamidine hydrochloride], which LD50 at 72 h is on record?
Answer: Its LD50 at 72 h is 620 mg/kg.

Question: With `CCc1ccccc1N=C(NC1CCCCC1)c1ccc(C)cc1.Cl` [Compound 30, N-cyclohexyl, N'-o-ethylphenyl-p-toluamidine hydrochloride] as the compound, how does the LD50 at 72 h read?
Answer: Its LD50 at 72 h is > 1000 mg/kg.

Question: With `Cc1ccc(C(=NC2CCCCC2)Nc2cccc(C)c2C)cc1` [Compound 31, N-cyclohexyl, N'-2,3,-xylyl-p-toluamidine hydrochloride] as the compound, how does the LD50 at 72 h read?
Answer: Its LD50 at 72 h is > 1000 mg/kg.

Question: With `Cc1ccc(C(=Nc2cccc(C)c2)NC2CCCCC2)cc1.Cl` [Compound 32, N-cyclohexyl, N'-m-tolyl-p-toluamidine hydrochloride] as the compound, how does the LD50 at 72 h read?
Answer: The LD50 at 72 h was 460 mg/kg.

Question: For `COc1cccc(N=C(NC2CCCCC2)c2ccc(C)cc2)c1.Cl` [Compound 33, N-cyclohexyl, N'-m-methoxyphenyl-p-toluamidine hydrochloride], which LD50 at 72 h is on record?
Answer: The LD50 at 72 h was 600 mg/kg.

Question: With `COc1ccccc1C(=Nc1ccccc1)NC1CCCCC1.Cl` [Compound 34, N-cyclohexyl, N'-phenyl-o-methoxy-benzamidine hydrochloride] as the compound, how does the LD50 at 72 h read?
Answer: The LD50 at 72 h was 100 mg/kg.

Question: With `COc1ccccc1C(=Nc1cccc(C)c1)NC1CCCCC1.Cl` [Compound 35, N-cyclohexyl, N'-m-tolyl-o-methoxy-benzamidine hydrochloride] as the compound, how does the LD50 at 72 h read?
Answer: The LD50 at 72 h was 144 mg/kg.

Question: With `COc1ccccc1C(=Nc1ccccc1C)NC1CCCCC1.Cl` [Compound 36, N-cyclohexyl, N'-o-tolyl-o-methoxy-benzamidine hydrochloride] as the compound, how does the LD50 at 72 h read?
Answer: The LD50 at 72 h was 100 mg/kg.

Question: With `COc1cccc(N=C(NC2CCCCC2)c2ccccc2OC)c1.Cl` [Compound 37, N-cyclohexyl, N'-m-methoxyphenyl-o-methoxybenzamidine hydrochloride] as the compound, how does the LD50 at 72 h read?
Answer: The LD50 at 72 h was 207 mg/kg.

Question: For `COc1ccc(C(=Nc2ccccc2)NC2CCCCC2)cc1.Cl` [Compound 38, N-cyclohexyl, N'-phenyl-p-anisamidine hydrochloride], which LD50 at 72 h is on record?
Answer: The LD50 at 72 h was 120 mg/kg.

Question: With `COc1ccc(C(=Nc2ccccc2C)NC2CCCCC2)cc1.Cl` [Compound 39, N-cyclohexyl, N'-o-tolyl-p-anisamidine hydrochloride] as the compound, how does the LD50 at 72 h read?
Answer: The LD50 at 72 h was 172 mg/kg.

Question: For `COc1ccc(C(=Nc2cccc(C)c2)NC2CCCCC2)cc1.Cl` [Compound 40, N-cyclohexyl, N'-m-tolyl-p-anisamidine hydrochloride], which LD50 at 72 h is on record?
Answer: Its LD50 at 72 h is 298 mg/kg.

Question: For `COc1ccc(C(=Nc2cccc(OC)c2)NC2CCCCC2)cc1.Cl` [Compound 41, N-cyclohexyl, N'-m-methoxyphenyl-p-anisamidine hydrochloride], which LD50 at 72 h is on record?
Answer: The LD50 at 72 h was 248 mg/kg.

Question: For `CCc1ccccc1N=C(NC1CCCCC1)c1ccccc1.Cl` [Compound 42, N-cyclohexyl, N'-o-ethylphenyl-benzamidine hydrochloride], which LD50 at 72 h is on record?
Answer: The LD50 at 72 h was > 1000 mg/kg.

Question: For `Cc1cc(C)cc(N=C(NC2CCCCC2)c2ccccc2)c1.Cl` [Compound 43, N-cyclohexyl, N'-3,5-xylyl-benzamidine hydrochloride], which LD50 at 72 h is on record?
Answer: The LD50 at 72 h was 660 mg/kg.

Question: With `CCc1cccc(N=C(NC2CCCCC2)c2ccccc2)c1.Cl` [Compound 44, N-cyclohexyl, N'-m-ethylphenyl-benzamidine hydrochloride] as the compound, how does the LD50 at 72 h read?
Answer: Its LD50 at 72 h is 900 mg/kg.

Question: With `Cc1cccc(C)c1N=C(NC1CCCCC1)c1ccccc1.Cl` [Compound 45, N-cyclohexyl, N'-2,6-xylyl-benzamidine hydrochloride] as the compound, how does the LD50 at 72 h read?
Answer: The LD50 at 72 h was 248 mg/kg.

Question: With `Cc1cc(C)c(NC(=NC2CCCCC2)c2ccccc2)c(C)c1` [Compound 46, N-cyclohexyl, N'-2,4,6-trimethyl-phenyl-benzamidine hydrochloride] as the compound, how does the LD50 at 72 h read?
Answer: Its LD50 at 72 h is 120 mg/kg.

system: male mice of ddy-strain; assay: in vivo; assay type: in vivo; details: subcutaneous injection, 72 hours, Litchfield-Wilcoxon
Excerpt: as §1
consisting of five male mice of ddy-

Question: For `Cl.c1ccc(N(CCN2CCCCC2)Cc2ccccn2)cc1` [Compound 11, picoperidamine hydrochloride, reference compound], which LD50 is on record?
Answer: Its LD50 is 144 mg/kg.

Question: Which LD50 does the source give for `Cl.Clc1ccc(C(OCCN2CCCCC2)c2ccccc2)cc1` (stereo not shown) [Compound 13, Hustazol, reference compound] here?
Answer: The LD50 was 375 mg/kg.

Question: For `COc1ccc2c3c1O[C@H]1[C@@H](O)C=C[C@H]4[C@@H](C2)N(C)CC[C@@]341` [Compound 17, codeine phosphate, reference compound], which LD50 is on record?
Answer: Its LD50 is 190 mg/kg.

system: persons; assay: not given; details: in words; inhibits long continuous administration; cited from earlier work

Question: With `COc1ccc2c3c1O[C@H]1[C@@H](O)C=C[C@H]4[C@@H](C2)N(C)CC[C@@]341` [Compound 17, codeine phosphate, reference compound] as the compound, how does the habituation read?
Answer: Its habituation is “appreciable habituation”.

system: dogs; assay: Antitussive activity (50%-antitussive effective dose AtD50; efficiency ratio relative to codeine phosphate); assay type: in vivo; details: Canis lupus familiaris; intravenous injection; Litchfield-Wilcoxon method; read-out: AtD50 (50%-antitussive effective dose)
Procedure: route of administration:
From the efficiency rate obtained upon each administration step, 50%-antitussive effective dose (AtD50) was calculated according to the Litchfield-Wilcoxon method. Further, efficiency ratio relative to codeine phosphate was also determined.

Question: With `COc1ccc2c3c1O[C@H]1[C@@H](O)C=C[C@H]4[C@@H](C2)N(C)CC[C@@]341` [Compound 17, codeine phosphate, reference compound] as the compound, how does the ED50 read?
Answer: Its ED50 is 2.2 mg/kg.

Question: With `COc1cccc(N=C(NC2CCCCC2)c2cccc(C)c2)c1.O=C(O)C(=O)O` [Compound 28, N-cyclohexyl, N'-m-methoxyphenyl-m-toluamidine oxalate] as the compound, how does the ED50 read?
Answer: Its ED50 is 5.15 mg/kg.

Question: Which ED50 does the source give for `Cc1ccc(C(=Nc2ccccc2C)NC2CCCCC2)cc1.Cl` [Compound 29, N-cyclohexyl, N'-o-tolyl-p-toluamidine hydrochloride] here?
Answer: Its ED50 is 2.48 mg/kg.

Question: For `CCc1ccccc1N=C(NC1CCCCC1)c1ccc(C)cc1.Cl` [Compound 30, N-cyclohexyl, N'-o-ethylphenyl-p-toluamidine hydrochloride], which ED50 is on record?
Answer: The ED50 was 4.29 mg/kg.

Question: For `Cc1ccc(C(=NC2CCCCC2)Nc2cccc(C)c2C)cc1` [Compound 31, N-cyclohexyl, N'-2,3,-xylyl-p-toluamidine hydrochloride], which ED50 is on record?
Answer: The ED50 was 2.07 mg/kg.

Question: For `Cc1ccc(C(=Nc2cccc(C)c2)NC2CCCCC2)cc1.Cl` [Compound 32, N-cyclohexyl, N'-m-tolyl-p-toluamidine hydrochloride], which ED50 is on record?
Answer: Its ED50 is 2.48 mg/kg.

Question: With `COc1cccc(N=C(NC2CCCCC2)c2ccc(C)cc2)c1.Cl` [Compound 33, N-cyclohexyl, N'-m-methoxyphenyl-p-toluamidine hydrochloride] as the compound, how does the ED50 read?
Answer: The ED50 was 5.15 mg/kg.

Question: With `COc1ccccc1C(=Nc1ccccc1)NC1CCCCC1.Cl` [Compound 34, N-cyclohexyl, N'-phenyl-o-methoxy-benzamidine hydrochloride] as the compound, how does the ED50 read?
Answer: Its ED50 is 3.58 mg/kg.

Question: With `COc1ccccc1C(=Nc1cccc(C)c1)NC1CCCCC1.Cl` [Compound 35, N-cyclohexyl, N'-m-tolyl-o-methoxy-benzamidine hydrochloride] as the compound, how does the ED50 read?
Answer: Its ED50 is 5.15 mg/kg.

Question: With `COc1ccccc1C(=Nc1ccccc1C)NC1CCCCC1.Cl` [Compound 36, N-cyclohexyl, N'-o-tolyl-o-methoxy-benzamidine hydrochloride] as the compound, how does the ED50 read?
Answer: Its ED50 is 4.29 mg/kg.

Question: For `COc1cccc(N=C(NC2CCCCC2)c2ccccc2OC)c1.Cl` [Compound 37, N-cyclohexyl, N'-m-methoxyphenyl-o-methoxybenzamidine hydrochloride], which ED50 is on record?
Answer: Its ED50 is 2.98 mg/kg.

Question: For `COc1ccc(C(=Nc2ccccc2)NC2CCCCC2)cc1.Cl` [Compound 38, N-cyclohexyl, N'-phenyl-p-anisamidine hydrochloride], which ED50 is on record?
Answer: The ED50 was 2.98 mg/kg.

Question: With `COc1ccc(C(=Nc2ccccc2C)NC2CCCCC2)cc1.Cl` [Compound 39, N-cyclohexyl, N'-o-tolyl-p-anisamidine hydrochloride] as the compound, how does the ED50 read?
Answer: The ED50 was 3.58 mg/kg.

Question: For `COc1ccc(C(=Nc2cccc(C)c2)NC2CCCCC2)cc1.Cl` [Compound 40, N-cyclohexyl, N'-m-tolyl-p-anisamidine hydrochloride], which ED50 is on record?
Answer: Its ED50 is 2.48 mg/kg.

Question: For `COc1ccc(C(=Nc2cccc(OC)c2)NC2CCCCC2)cc1.Cl` [Compound 41, N-cyclohexyl, N'-m-methoxyphenyl-p-anisamidine hydrochloride], which ED50 is on record?
Answer: The ED50 was 2.98 mg/kg.

Question: Which ED50 does the source give for `CCc1ccccc1N=C(NC1CCCCC1)c1ccccc1.Cl` [Compound 42, N-cyclohexyl, N'-o-ethylphenyl-benzamidine hydrochloride] here?
Answer: Its ED50 is 4.29 mg/kg.

Question: Which ED50 does the source give for `Cc1cc(C)cc(N=C(NC2CCCCC2)c2ccccc2)c1.Cl` [Compound 43, N-cyclohexyl, N'-3,5-xylyl-benzamidine hydrochloride] here?
Answer: Its ED50 is 3.58 mg/kg.

Question: Which ED50 does the source give for `CCc1cccc(N=C(NC2CCCCC2)c2ccccc2)c1.Cl` [Compound 44, N-cyclohexyl, N'-m-ethylphenyl-benzamidine hydrochloride] here?
Answer: Its ED50 is 4.29 mg/kg.

Question: With `Cc1cccc(C)c1N=C(NC1CCCCC1)c1ccccc1.Cl` [Compound 45, N-cyclohexyl, N'-2,6-xylyl-benzamidine hydrochloride] as the compound, how does the ED50 read?
Answer: The ED50 was 4.29 mg/kg.

Question: Which ED50 does the source give for `Cc1cc(C)c(NC(=NC2CCCCC2)c2ccccc2)c(C)c1` [Compound 46, N-cyclohexyl, N'-2,4,6-trimethyl-phenyl-benzamidine hydrochloride] here?
Answer: The ED50 was 5.15 mg/kg.

same assay, conditions: intravenous injection; efficiency ratio relative to codeine phosphate

Question: For `Cl.c1ccc(N(CCN2CCCCC2)Cc2ccccn2)cc1` [Compound 11, picoperidamine hydrochloride, reference compound], which “Antitussive Ratio” value is on record?
Answer: Its value is 0.95.

Question: Which “Antitussive Ratio” value does the source give for `Cl.Clc1ccc(C(OCCN2CCCCC2)c2ccccc2)cc1` (stereo not shown) [Compound 13, Hustazol, reference compound] here?
Answer: The value was 0.52.

Question: Which “Antitussive Ratio” value does the source give for `COc1ccc2c3c1O[C@H]1[C@@H](O)C=C[C@H]4[C@@H](C2)N(C)CC[C@@]341` [Compound 17, codeine phosphate, reference compound] here?
Answer: Its value is 1.00.
